Test results taken from US20100152150A1, “THE APPLICATION OF MARINE STEROID IN PREPARING THE MEDICINE OF TREATING NEURONS DAMAGING” (priority 2006, published 2010).

Legend:
[1] = test system: rat cerebellar granule neurons (CGNs); test: Hypoxia/reoxygenation (H/R) induced death of in vitro cultured cerebellar granule neurons; assay type: cell-based; settings: for CGNs morphology under inverted fluorescence microscope: pre-treated 3 h with 10 μM MK801 or 12 μM YC-1 or 12 μM YC-2, then 3 h hypoxia and 24 h reoxygenation
Description: 1) Culture of Rat Cerebellar Granule Neurons (CGNs)
According to Yan, etc, the neurons were prepared as follows:
(1) A clean 7-8 d SD rat weighing about 15-20 g was taken and the cerebella was separated under sterile condition.
(2) The meninges and vessels were gotten rid of in Kreb's anatomy solution (Ca^2+ and Mg^2+ free).
(3) The cerebella was sheared into pieces of 1 mm^3 with ophthalmic scissors.
(4) Digested in 0.25 g/L trypsin solution for 15 min at 37.
(5) The digestion was stopped with solution containing 0.5 g/L trypsin inhibitor and 0.05 g/L Dnase I and pipetted up and down to get single cell suspension.
(6) The single cell suspension was centrifuged at 200 g for 5 min, the precipitation was rinsed once with rinse solution.
(7) Span down again at 200 g for 5 min, the supernatant was discarded.
(8) The cell pellet was diluted to cell density of 1.5-1.8×10^6 cells/ml with BME medium containing 10% (v/v) FBA and 25 mM KCl.
(9) They were inoculated into cell culture dishes pre-coated with polylysine and incubated at 370 incubator with 5% CO2.
(10) Twenty-four hours after inoculation, 10 μmol/L Ara-C was added to inhibit non-neuron cells' growth and proliferation and to make the purity of CGNs above 95%.
(11) Glucose was added to 5 mM on day 7 incubation to supplement energy needed by cell metabolism.
(12) The experiment on day 8.
2). Establishment of CGNs Hypoxia/Reoxygenation (H/R) Injury Model
Referred to Seko (Seko Y, To be K, Ueki K, et al. Hypoxia and hypoxia/reoxygenation activate Raf-1, mitogen-activated protein kinase kinase, mitogen-activated protein kinases, and S6 kinase in cultured rat cardiac myocytes. Circ Res. 1996 January; 78(1):82-90) etc for the establishment method:
(1) On day 8, the treated CGNs were put in airtight box with oxygen consumption reagent and indicator and incubated at 37° for 3 h.
(2) The cells were transferred to 370 incubator with 5% CO2 for reoxygenation treatment.
(3). Cell morphological observation and neuron viability measurement
The following were done referring to Yan (Yan G M, Irwin R P, Lin S Z, et al. Diphenylhydantoin induces apoptotic cell death of cultured rat cerebellar granule neurons. J Pharmacol Exp Ther, 1995, 274(2): 983-8) et al.:
(1) CGNs were cultured in 35 mm dishes, on day 8, the medium was removed after various factors treatment, the cells were rinsed twice with 4 PBS containing Ca^2+ and Mg^2+.
(2) The cells were fixed with 40 g/L paraformaldehyde (40, dissolved in PBS) for 10 min.
(3) The fixation solution was removed, the cells were rinsed twice with distilled water, air dried at 4°.
(4) The cell morphological change was observed and randomly photographed under inverted fluorescence microscope (Olympus).

[2] = test system: SD rats with permanent middle cerebral artery occlusion (MCAO); test: MCAO induced rat cerebral ischemia model; assay type: in vivo
Description: Method: Preparation of Rat Middle Cerebral Artery Occlusion (MCAO) Model
25 healthy male SD rats were divided into 3 groups randomly: YC-1 group (n=11): 10 min, 6 h, 24 h and 7 d after occluding the middle cerebral artery, 12 mg/Kg YC-1 was continuously injected intraperitoneally. DMSO group (n=11): same volume of DMSO (1 ml/Kg) was injected in the same way. Sham group (n=3): just very short intraluminal thread was inserted and didn't occlude the MCA.
The following method was a modification of Zea Longa's method (Longa E Z, Weinstein P R, Carlson S, Cummins R. Reversible middle cerebral artery occlusion without craniectomy in rats. Stroke, 1989, 20: 84-91).
(1) The rats drinked freely but fasted one night before the operation.
(2) 10 min before anesthesia, atropine sulfate (0.5 mg/Kg) was intraperitoneally (ip) injected.
(3) Narcotized the rat with ip injected 10% chloral hydrate, 3.5 ml anesthetic per Kg rat; The areflexia of hindlimb retraction and corneal were used as anesthesia index. […]
(7) Rectum temperature was measured by using Meikangti electronic temperature measure instrument the whole process and it was strictly controlled at 36.5-37.5°. […]

[3] = test system: New Zealand white rabbits with spinal cord ischemia; test: Abdominal aorta clipping induced rabbit spinal cord ischemia model; assay type: in vivo; settings: 8 mg/Kg intravenous 30 min before ischemia
Description: Method: Preparation of spinal cord ischemia model.
24 male New Zealand white rabbits were divided evenly into 3 groups (n=8):
YC-1 group: 30 min before spinal cord ischemia, 8 mg/Kg YC-1 was intravenous injected through the rabbit's ear. DMSO group: same volume of DMSO (1 ml/Kg) was injected in the same way.
Sham group: the abdominal aorta was exposed but wasn't clipped.
Referring to Johnson etc, the model was prepared as follows:
(1) The rabbits drinked freely but fasted one night before the operation.
(2) The rabbit was anesthetized by injecting 3% sodium pentobarbital (30 mg/Kg) by ear intravenous. On the other side of the ear a vein-detaining needle (24 G) was set for medicine and other fluid infusion.
(3) An artery-detaining needle (24 G) was set in the right ear artery for monitoring the proximal arterial pressure and blood sampling during the operation.
(4) An artery-detaining needle (24 G) was set in a femoral artery for monitoring the distal arterial pressure during the operation.
(5) The rabbit was supinely fixed and incised at the median abdomen; the abdominal aorta was exposed.
(6) Injected heparin (150 U/Kg) through the vein-detaining needle, then the abdominal aorta was clipped at the 0.5-1.0 cm spot below origin of the left renal artery to cause spinal cord ischemia.
(7) Once the abdominal aorta was blocked, the distal arterial pressure decreased immediately and the femoral arterial pulsation disappeared.
(8) The clip was removed 20 min after ischemia and the abdomen was sutured.
(9) Then intramuscularly injected 40,000 U gentamicin, the rabbit was returned back to cage and observed for 48 h.
(10) The proximal arterial pressure, distal arterial pressure and heart rate (Spacelab, US) were continuously monitored during the operation. Rectum temperature was maintained at 38.5±0.5° by using heating pad and roasting lamp.
(11) Blood gas (AVL-2, Switzerland) and glucose (One Touch II, USA) were monitored by ear artery blood sampling 10 min before ischemia, 10 min after ischemia and 10 min after reperfusion.

[4] = test system: rat cerebellar granule neurons (CGNs); test: Repolarization (low potassium, LK) induced death of in vitro cultured cerebellar granule neurons; assay type: cell-based
Description: The methods for rat CGNs cell culture, cellular morphologic observation and neuronal viability measurement were the same as above. Then check the in vitro cultured cerebellar granule neurons death through agarose gel electrophoresis according to reference:
(1) CGNs in […] dishes were inoculated.
(2) On day 8, 24 h after adding various medicines, the medium was removed, the cells were rinsed twice with PBS.
(3) The collected cells were spun down with a low temperature high speed centrifuge (Biofuge22R, Heraeus, Germany) at 5000 rpm, 4° for 5 min.
(4) the cell pellet was resuspended with 600 μl buffer containing 10 mmol/L Tris-HCl, 10 mmol/L EDTA and 2 g/L Triton X-100 (pH 7.5) and incubated for 15 min.
(6) The supernatant was extracted once with equal volume of phenol and spun down.
(7) The supernatant was extracted once with equal volume of phenol-chloroform (1:1), spun down.
(8) The supernatant was taken, 300 mmol/L Sodium Acetate and equal volume of isopropanol were added and precipitated for overnight.
(9) The pellet was spun down and rinsed 2-3 times with 70% ethanol.
(10) After drying, some TE (Tris 10 mmol L^−1, EDTA 1.0 mmol L^−1, pH 7.4, and 0.6 g·L^−1 RNase A) were added and incubated at 37° for 30 min.
(11) The samples were analyzed with 20 g/L agarose gel electrophoresis for 1 h.
(12) Dyed with ethidium bromide and photographed under UV light.

[5] = test system: rat cerebellar granule neurons (CGNs); test: Glutamic acid (Glu) induced death of in vitro cultured cerebellar granule neurons; assay type: cell-based
Description: (1) Isolatation and primary culture of rat CGNs.
(2) Morphology observation of neuron cell body and processes under phase contrast microscopy.
(3) Analysis of neuronal metabolic activity and viability using fluorescein diacetate (FDA) staining.

Row | Structure (SMILES) | viability at 10 µM ([1]; Rattus norvegicus, Neuron, 10 μM MK801 or 12 μM YC-1 or 12 μM YC-2, then H/R, H/R alone 16.56±3.21%, read-out: neuronal viability (FDA dye)) [%] | CGNs morphology under inverted fluorescence microscope [1] | brain tissue colour and morphology by visual inspection ([2]; rat MCAO, 12 mg/Kg intraperitoneally, DMSO group showed obvious pallor and swelling) | infarct size (TTC dye) ([2]; rat permanent MCAO, 12 mg/Kg YC-1 intraperitoneally at 10 min, 6 h, 24 h and 7 d after occlusion, DMSO group 62±8%) [%] | rabbits able to stand (hindlimb function) ([3]; rabbit spinal cord ischemia 20 min, n=8, no rabbit in DMSO group could stand) | neurological function score ([3]; rabbit spinal cord ischemia, each observation time point, versus DMSO group, p<0.05) | lumbar spinal cord injury (histopathological examination) ([3]; rabbit spinal cord ischemia, versus DMSO group) | number of normal spinal cord anterior horn neurons ([3]; rabbit spinal cord ischemia, versus DMSO group, p<0.01) | neuronal viability (FDA dye) ([1]; 10 μM MK801 or 12 μM YC-1 or 12 μM YC-2, then H/R, H/R alone 16.56±3.21%) [%] | nuclear morphology (Hoechst33258 dye) ([1]; 12 μM, then H/R treatment) | CGNs morphology (cell bodies and processes) ([4]; 12 μM added 3 h before and at change to 5 mM KCl serum free medium, 24 h) | CGNs survived (FDA staining) ([4]; 12 μM added 3 h before and at change to 5 mM KCl serum free medium, 24 h, low potassium alone 40.2±14.04%) [%] | DNA fragments produced from LK induced CGNs apoptosis (agarose gel electrophoresis) ([4]; FIG. 18) | Glu induced CGNs apoptosis (phase contrast microscopy) ([5]; 12 μM added 1 h before 150 μM Glu, observed 24 h later) | CGNs' viability (FDA staining) ([5]; 12 μM, 150 μM Glu 24 h, Glu control group 29.5±8.23%) [%]
1 | C[C@]12N[C@H](Cc3ccccc31)c1ccccc12 [MK801, reference compound] | 86.7 ± 3.21 | Most CGNs cell body kept intact, plump and lucent |  |  |  |  |  |  |  |  |  |  |  |  | 
2 | C=C(CC[C@@H](C)[C@H]1CC[C@H]2[C@@H]3C[C@@H](O)[C@@]4(O)C[C@@H](O)CC[C@]4(CO)[C@H]3CC[C@]12C)C(C)C [YC-1, 24-methylene-cholest-3β,5α,6β,19-tetrol] |  | Most CGNs cell body kept intact, plump and lucent | no obvious pallor and swelling | 32±11 | Six rabbits in the CPA (YC-1) group could stand | obviously higher than that in DMSO group | obviously relieved | increased evidently | 84.29±1.26 | Most CGNs showed normal nuclear morphology and even chromatin distribution | most CGNs kept intact cell bodies and processes | 94.3±14.02 | can reduce DNA fragments | obviously inhibited Glu induced CGNs apoptosis | 92.6±2.59
